According to US20250066341A1 (CHIESI FARMACEUTICI S.P.A., priority 2021, published 2025):
pIC50: −log10 of the molar value.

Target: T1, human recombinant LPA1 expressed in CHO cells (Homo sapiens, UniProt Q92633)
T1 construct: expressed in transfected cells; host or cells: CHO cells (CHO-hLPA1 cell line)
Experiment: FLIPR calcium mobilization assay, LPA1 antagonism in CHO-hLPA1 cells
Type: cell-based
Conditions: inhibition of LPA EC80 Ca2+ response, 30 min pre-incubation, expressed as range of activity
Experimental: The effectiveness of compounds of the present invention as LPA1 antagonist can be determined at the human recombinant LPA1 expressed in CHO cells, using a FLIPR assay in 384 well format.
CHO-hLPA1 cell lines are cultured in a humidified incubator at 5% C02 in DMEM/F-12 (1:1) MIXTURE with 2 mM Glutamax, supplemented with 10% of Foetal Bovine Serum, 1 mM Sodium Pyruvate, 11 mM Hepes and 1× Penicillin/Streptomycin. […] Serial dilutions (1:3 or 1:4, 11 points CRC) of compounds are performed in 100% DMSO at 200× the final concentration. […] The final concentration of DMSO in the assay will be 0.5% in each well. Medium is removed by aspiration and cells are then incubated with 30 μl of a loading solution containing 5 μM of the cytoplasmic Ca2+ indicator Cal-520 AM in Assay Buffer containing 2.5 mM probenecid for 30 min at 37° C. incubator (cell loading). The loaded cell plates are transferred into the FLIPR instrument and calcium responses are monitored during the on-line addition protocols. For testing of compounds, after the cell loading, 10 μl/well of 4× antagonists' solution was added onto the cells. After 30 min pre-incubation (at 37° C.), 10 μl/well of 5× concentrated LPA EC80 was added and Ca2+ mobilization responses was followed during the on-line addition protocol. Intracellular peak fluorescence values subtracted by baseline fluorescence are exported and analysed to determine IC50 values, respectively. The calcium response is expressed as percentage of the maximal inhibition of the EC80 agonist response.
The raw data (peak height expressed as relative fluorescence units) are normalized and transformed into “percent of inhibition”. Curve fitting and pIC50 (−LogIC50) estimations are carried out using a four-parameter logistic model using XLfit Software.

T1 sequence (Q92633 whole entry): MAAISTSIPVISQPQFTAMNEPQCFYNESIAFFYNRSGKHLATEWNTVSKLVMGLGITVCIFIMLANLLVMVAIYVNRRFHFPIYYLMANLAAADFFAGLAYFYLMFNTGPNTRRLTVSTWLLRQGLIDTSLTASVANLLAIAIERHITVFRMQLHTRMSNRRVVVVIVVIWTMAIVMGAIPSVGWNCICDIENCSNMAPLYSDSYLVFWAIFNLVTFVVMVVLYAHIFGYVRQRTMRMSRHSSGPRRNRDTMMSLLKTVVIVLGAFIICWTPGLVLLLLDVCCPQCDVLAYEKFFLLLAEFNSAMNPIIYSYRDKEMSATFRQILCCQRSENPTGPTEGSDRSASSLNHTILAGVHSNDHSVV

| Compound | pIC50 |
| --- | --- |
| Cc1noc(-c2ccc(NC(=O)C3CCCCC3C(=O)O)cc2)c1Nc1cncc(OC(C)C)n1 (racemic) [Compound 16, 2-((4-(4-((6-isopropoxypyrazin-2-yl)amino)-3-methylisoxazol-5-yl)phenyl)carbamoyl)cyclohexane-1-carboxylic acid] | > 7.30 |
| Cc1nc(-c2onc(C)c2NS(=O)(=O)CC(C)c2ccccc2)ccc1NC(=O)[C@H]1CCCC[C@@H]1C(=O)O (mixture of isomers) [Compound 29, rac-(1S,2S)-2-((2-methyl-6-(3-methyl-4-((2-phenylpropyl)sulfonamido)isoxazol-5-yl)pyridin-3-yl)carbamoyl)cyclohexane-1-carboxylic acid] | > 7.30 |
| CC(C)Oc1cncc(Nc2c(-c3ccc(NC(=O)C4CCCCC4C(=O)O)cc3)nnn2C)n1 (racemic) [Compound 43, 2-((4-(5-((6-isopropoxypyrazin-2-yl)amino)-1-methyl-1H-1,2,3-triazol-4-yl)phenyl)carbamoyl)cyclohexane-1-carboxylic acid] | 6.60 to 7.30 |
| Cc1nc(-c2onc(C)c2NS(=O)(=O)CC(C)c2ccccc2)ccc1NC(=O)[C@H]1CCCC[C@@H]1C(=O)O (single isomer, unassigned) [Compound 30] | > 7.30 |
| Cc1noc(-c2ccc(OCC3CCCCC3C(=O)O)cn2)c1NC(=O)O[C@H](C)c1ccccc1Cl (single isomer, unassigned) [Compound 81] | > 7.30 |
| Cc1nc(-c2onc(C)c2Nc2cncc(OC3CC(F)(F)C3)n2)ccc1NC(=O)[C@H]1CCCC[C@@H]1C(=O)O [Compound 3, (1S,2S)-2-((6-(4-((6-(3,3-difluorocyclobutoxy)pyrazin-2-yl)amino)-3-methylisoxazol-5-yl)-2-methylpyridin-3-yl)carbamoyl)cyclohexane-1-carboxylic acid] | 6.60 to 7.30 |
| Cc1nc(-c2onc(C)c2Nc2cncc(C(F)(F)F)n2)ccc1NC(=O)[C@H]1CCCC[C@@H]1C(=O)O [Compound 4, (1S,2S)-2-((2-methyl-6-(3-methyl-4-((6-(trifluoromethyl)pyrazin-2-yl)amino)isoxazol-5-yl)pyridin-3-yl)carbamoyl)cyclohexane-1-carboxylic acid] | 6.60 to 7.30 |
| CCCCNc1cncc(Nc2c(C)noc2-c2ccc(NC(=O)[C@H]3CCCC[C@@H]3C(=O)O)c(C)n2)n1 [Compound 5, (1S,2S)-2-((6-(4-((6-(butylamino)pyrazin-2-yl)amino)-3-methylisoxazol-5-yl)-2-methylpyridin-3-yl)carbamoyl)cyclohexane-1-carboxylic acid] | 6.22 to 6.60 |
| Cc1nc(-c2onc(C)c2Nc2cncc(-c3ccccc3)n2)ccc1NC(=O)[C@H]1CCCC[C@@H]1C(=O)O [Compound 6, (1S,2S)-2-((2-methyl-6-(3-methyl-4-((6-phenylpyrazin-2-yl)amino)isoxazol-5-yl)pyridin-3-yl)carbamoyl)cyclohexane-1-carboxylic acid] | > 7.30 |
| Cc1nc(-c2onc(C)c2Nc2cncc(-c3cccnc3)n2)ccc1NC(=O)[C@H]1CCCC[C@@H]1C(=O)O [Compound 7, (1S,2S)-2-((2-methyl-6-(3-methyl-4-((6-(pyridin-3-yl)pyrazin-2-yl)amino)isoxazol-5-yl)pyridin-3-yl)carbamoyl)cyclohexane-1-carboxylic acid] | 6.60 to 7.30 |
| Cc1nc(-c2onc(C)c2Nc2cncc(-c3ccncc3)n2)ccc1NC(=O)[C@H]1CCCC[C@@H]1C(=O)O [Compound 8, (1S,2S)-2-((2-methyl-6-(3-methyl-4-((6-(pyridin-4-yl)pyrazin-2-yl)amino)isoxazol-5-yl)pyridin-3-yl)carbamoyl)cyclohexane-1-carboxylic acid] | 6.60 to 7.30 |
| Cc1nc(-c2onc(C)c2Nc2cncc(C3=CCCCC3)n2)ccc1NC(=O)[C@H]1CCCC[C@@H]1C(=O)O [Compound 10, (1S,2S)-2-((6-(4-((6-(cyclohex-1-en-1-yl)pyrazin-2-yl)amino)-3-methylisoxazol-5-yl)-2-methylpyridin-3-yl)carbamoyl)cyclohexane-1-carboxylic acid] | > 7.30 |
